The text below walks through data of PubChem BioAssay (NCI).

Holding throughout (test): NCI tumour cell line growth inhibition, 48 h
Experiment [1] concerns COLO 205 colon.
Experiment [2] concerns LOX IMVI melanoma.
The test system of experiment [3] is KM12 colon.
The test system of experiment [4] is HOP-62 NSCLC.
Experiment [5] concerns NCI-H460 lung.
Experiment [6] has as its system CAKI-1 renal.
Experiment [7] concerns PC-3 prostate.
In experiment [8] the test system is NCI-H23 lung.
The subject of experiment [9] is T-47D breast.
For experiment [10], the system named is SR leukemia.

Where “and” joins values, the source holds several entries; their conditions need not be identical. Equal entries are not always repeated.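 All cell lines were grown in 96-well plates and treated with compound for 48 hours. The concentration for 50% growth inhibition is given as GI50. TGI marks complete inhibition of growth.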 Where a SMILES comes first, the peptide text is derived from it. [ ]: non-standard residue; d: D form. The star is where a group is joined. Phe(4-NO2) = N[CH](Cc1ccc([N+](=O)[O-])cc1)C(=O)O; Boc = CC(C)(C)OC(=O)*; OtBu = CC(C)(C)O* Bounds are passed on as bounds.

`COc1ccc(CC2C(=O)NC(C)C(=O)N(C)C3Cc4ccc(cc4)Oc4cc(ccc4O)CC(C(=O)NC(C)C(=O)NC(C)C(=O)N2C)N(C)C3=O)cc1` (centres undefined): the GI50 in experiment [1] is 0.000278 µM; in [2], below 0.0001 µM; in [3], below 0.0001 µM; in experiment [4] it was 0.00218 µM; in [5] it was 0.000156 µM; in experiment [6], 0.497 µM and 0.647 µM and 0.0727 µM. The GI50 in experiment [8] was below 0.0001 µM. The TGI in experiment [1] is 0.0745 µM; in experiment [3], 0.127 µM; in [5] it was 0.0284 µM and 0.106 µM and 0.0325 µM; in experiment [7] it was 0.000246 µM; in experiment [8] it was 0.0293 µM and 0.0212 µM and 0.158 µM; in experiment [9], 0.201 µM and 0.0219 µM. For the same compound, the TGI in experiment [10] was 0.112 µM.
For `O=C(CCCN1CCc2[nH]c3cc(F)ccc3c2C1)c1ccc(F)cc1`, the TGI is 17.1 µM in [1]; 17.5 µM in [2]; 26.9 µM in experiment [3]; 29.8 µM in experiment [4]; 23.9 µM in experiment [5]; above 100 µM in experiment [6]. In addition, the TGI in experiment [7] is 25.7 µM; in [8], 28 µM; in experiment [9] it was 36.1 µM; in experiment [10], 26.1 µM.
As for `O=C(O)c1ccc(Nc2cnc3ccc(C(F)(F)F)cc3n2)cc1`, the TGI in experiment [1] was 32.5 µM; in experiment [2], 24.5 µM; in [3], 31.4 µM; in [4], 38.9 µM; in experiment [5], 87.9 µM; in experiment [6], 30.9 µM. The TGI in experiment [7] was 42.6 µM; in experiment [8] it was 33.5 µM; in experiment [9], 17.9 µM; in [10] it was 43.8 µM.
In the case of `N#Cc1nnc2c3c(-c4ccc(Cl)cc4)c(C#N)c(=O)[nH]c3nn2c1N`, the TGI in experiment [1] was 28.4 µM; in experiment [2], 8.01 µM; in experiment [3], 28.5 µM; in experiment [4], 21.8 µM; in experiment [5] it was 52.6 µM; in experiment [6], 16.4 µM. The TGI in experiment [7] came to 24.5 µM; in experiment [8], 24 µM; in experiment [9] it was 3.97 µM; in experiment [10], 16.7 µM.
For the compound `Cc1cnc2[nH]c(-c3ccccc3)cc(=O)c2c1`, the TGI is above 100 µM in experiment [1]; above 100 µM in experiment [2]; 13.9 µM in [3]; above 100 µM in experiment [4]; above 47.5 µM in [5]; above 100 µM in [6]. The TGI in experiment [7] is above 57.3 µM; in experiment [8], above 13.5 µM; in experiment [9] it was above 100 µM; in experiment [10], above 100 µM.
Take `COc1ccc(C[C@H]2COC(=O)[C@@H]2Cc2cc(OC)c(OC)c(OC)c2)cc1OC`: the TGI in experiment [1], in experiment [2], in experiment [3], in experiment [4], in [5] and in [6] was above 100 µM throughout. Further, the TGI is above 100 µM in experiment [7], above 100 µM in experiment [8], above 65.2 µM in experiment [9] and above 100 µM in experiment [10].
As for `CC(C)[Si]1(C(C)C)OCC2OC(n3cnc4c(N)ncnc43)C(N)C2O[Si](C(C)C)(C(C)C)O1` (centres undefined), the TGI in experiment [1] is 23.9 µM; in [2] it was 21.3 µM; in experiment [3], 16.6 µM; in experiment [4], above 49.5 µM; in [5], 27.5 µM; in experiment [6] it was 35.3 µM. The TGI was above 43 µM in experiment [7], 26.5 µM in experiment [8], 30.5 µM in experiment [9] and above 27.1 µM in experiment [10].
As for `COC(=O)C(Cc1ccc([N+](=O)[O-])cc1)NC(=O)C(CC(=O)OC(C)(C)C)NC(=O)OC(C)(C)C` (centres undefined) (Boc-Asp(OtBu)-[Phe(4-NO2)]-OMe; configuration not given here), the TGI in experiment [1] was above 100 µM; in experiment [2], 49 µM; in experiment [3], above 100 µM; in experiment [4], above 100 µM; in experiment [5], above 100 µM; in experiment [6] it was above 100 µM. In addition, the TGI in experiment [7] was above 100 µM; in [8], above 100 µM; in experiment [9] it was above 100 µM; in [10] it was 54 µM.
As for `CCOc1cc(C=O)ccc1O`, the TGI in experiment [1], in [2], in [3], in experiment [4], in experiment [5] and in [6] was above 100 µM each time. Besides, the TGI in experiment [7], in experiment [8], in experiment [9] and in [10] was above 100 µM throughout.
For the compound `CN(Cc1nc2c(N)nc(N)nc2nc1N)c1ccc(C(=O)NC(CCC(=O)O)C(=O)O)cc1` (centres undefined), the TGI in experiment [1] was above 100 µM; in experiment [2], above 100 µM; in experiment [3], above 100 µM; in experiment [4], above 100 µM; in experiment [5] it was above 100 µM; in [6] it was above 88 µM. In addition, the TGI in experiment [7], in [8], in [9] and in [10] was above 100 µM each time.
With `COc1ccc(S(=O)(=O)Nc2ccc(-c3csc(N4C(=O)/C(=C/C=C\c5ccccc5)N=C4c4ccccc4)n3)cc2)cc1Cl`, the TGI in [1] is above 100 µM; in experiment [2], 46.3 µM; in [3], 97.1 µM; in experiment [4], above 100 µM; in [5], above 100 µM; in experiment [6] it was above 100 µM. The TGI in [7] is above 100 µM; in experiment [8], 42.4 µM; in [9], 57.1 µM; in [10], above 100 µM.
